Measured values as given in US20230265151A1, “GIP/GLP1 CO-AGONIST COMPOUNDS” (priority 2020, published 2023).
Where two headings read alike, the source gives them in different places.

T1: hGIPR (Homo sapiens, UniProt P48546)
T1 construct: expressed in transfected cells
T1 sequence (P48546 22-466): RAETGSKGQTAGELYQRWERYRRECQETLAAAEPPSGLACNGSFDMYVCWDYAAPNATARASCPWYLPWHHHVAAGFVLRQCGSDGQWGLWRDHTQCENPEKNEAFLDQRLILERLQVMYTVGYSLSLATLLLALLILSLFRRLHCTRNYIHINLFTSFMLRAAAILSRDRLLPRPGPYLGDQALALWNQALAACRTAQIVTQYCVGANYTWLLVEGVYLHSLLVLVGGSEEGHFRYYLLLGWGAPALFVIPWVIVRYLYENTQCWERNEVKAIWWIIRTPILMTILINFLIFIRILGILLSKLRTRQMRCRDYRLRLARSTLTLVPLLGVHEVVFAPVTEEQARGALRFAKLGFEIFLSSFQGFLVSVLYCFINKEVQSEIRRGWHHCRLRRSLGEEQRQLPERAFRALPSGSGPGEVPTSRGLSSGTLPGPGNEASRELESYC

T2: human GIP receptor (hGIPR) (Homo sapiens, UniProt P48546)
T2 construct: expressed in transfected cells; crude membranes
T2 sequence (P48546 22-466): T1 sequence (P48546 22-466)

T3: human glucose-dependent insulinotropic polypeptide (GIP) receptor (human) (UniProt P48546)
T3 sequence (looked up): T1 sequence (P48546 22-466)

T4: human GIP receptor (human, UniProt P48546 22-466)
T4 sequence (looked up): T1 sequence (P48546 22-466)

B1: Example 220 (peptide)
peptide: YXEGTXTSDXXIXLDXIAQXKFIXXLIKGGPSSGAPPPS
modifications: Y-Aib-EGT-αMeF(2F)-TSD-4Pal-Aib-I-αMeL-LD-Orn-IAQ-Aib-K((2-[2-(2-Amino-ethoxy)-ethoxy]-acetyl)2-(γ-Glu)-CO-(CH2)12-CO2H)FI-(D-Glu)-αMeY-LIK((2-[2-(2-Amino-ethoxy)-ethoxy]-acetyl)2-(γ-Glu)-CO-(CH2)12-CO2H)GGPSSGAPPPS-NH2

Legend:
hGCGR = molecular target: T5, hGCGR (Homo sapiens, UniProt P47871); test: Functional cAMP formation (HTRF) in HEK-293 clonal cells expressing hGCGR, 0.1% bovine casein, without or with 1.0% human serum albumin; assay type: cell-based; conditions: cAMP, 37° C., read-out: hGCGR EC50, nM (SEM, n)
T5 construct: expressed in transfected cells
Summary of the method: (§1)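 Readings of the HTRF 665/620 nm ratio, which falls as cAMP rises, were converted to nM cAMP using a standard curve after 30 min peptide exposure at 37° C.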

[1] = molecular target: T6, human Gcg receptor (hGcgR) (Homo sapiens, UniProt P47871); test: [125I]-Glucagon binding, SPA with membranes of HEK293 cells expressing hGcgR; conditions: human GcgR; geometric mean (SEM, n); read-out: Binding Affinity Ki, nM (SEM, n) hGCGR
T6 construct: expressed in transfected cells; crude membranes

[2] = molecular target: T7, human GLP-1 receptor (hGLP-1R) (Homo sapiens, UniProt P43220); test: [125I]-GLP-1 binding, SPA with membranes of HEK293 cells expressing hGLP-1R; conditions: human GLP-1R; geometric mean (SEM, n); read-out: Binding Affinity Ki, nM (SEM, n) hGLP-1R
T7 construct: expressed in transfected cells; crude membranes

hGIPR = molecular target: T1, hGIPR; test: Functional cAMP formation (HTRF) in HEK-293 clonal cells expressing hGIPR, 0.1% bovine casein, without or with 1.0% human serum albumin; assay type: cell-based; conditions: 37° C.; for Emax: HEK293, cAMP, 0.1% bovine casein and 1.0% human serum albumin, percent of maximal response to GIP(1-42)NH2, read-out: hGIPR Emax, % ± SEM; for EC50: cAMP, 0.1% bovine casein (no human serum albumin), geometric mean, read-out: hGIPR EC50, nM (SEM, n)
Summary of the method: as §1

[3] = molecular target: T2, human GIP receptor (hGIPR); test: [125I]-GIP binding, SPA with membranes of CHO cells expressing hGIPR; conditions: human GIPR; geometric mean (SEM, n); read-out: Binding Affinity Ki, nM (SEM, n) hGIPR
hGLP-1R = hGLP-1R (Homo sapiens, UniProt P43220); test: Functional cAMP formation (HTRF) in HEK-293 clonal cells expressing hGLP-1R, 0.1% bovine casein, without or with 1.0% human serum albumin; assay type: cell-based; parameters: expressed in transfected cells; conditions: 37° C.; for Emax: HEK293, cAMP, percent of maximal response to GLP-1(7-36)NH2, read-out: hGLP-1R Emax, % ± SEM; for EC50: cAMP, 0.1% bovine casein (no human serum albumin), geometric mean, read-out: hGLP-1R EC50, nM (SEM, n)
Summary of the method: as §1

[4] = molecular target: human glucagon-like peptide-1 (GLP-1) receptor (human) (UniProt P43220); test: cell-based or functional assay
[5] = molecular target: T3, human glucose-dependent insulinotropic polypeptide (GIP) receptor (human); test: cell-based or functional assay
[6] = molecular target: human glucagon receptor (human) (UniProt P47871); test: cell-based or functional assay
human GIP receptor = molecular target: T4, human GIP receptor; test: cell-based or functional assay
human glucagon receptor = human glucagon receptor (human, UniProt P47871 26-477); test: cell-based or functional assay
human GLP-1 receptor = human GLP-1 receptor (human, UniProt P43220 24-463); test: cell-based or functional assay
[7] = 0.1% bovine casein (no human serum albumin), geometric mean
[8] = 0.1% bovine casein and 1.0% human serum albumin, geometric mean (SEM, n)

T7 sequence (P43220 24-463): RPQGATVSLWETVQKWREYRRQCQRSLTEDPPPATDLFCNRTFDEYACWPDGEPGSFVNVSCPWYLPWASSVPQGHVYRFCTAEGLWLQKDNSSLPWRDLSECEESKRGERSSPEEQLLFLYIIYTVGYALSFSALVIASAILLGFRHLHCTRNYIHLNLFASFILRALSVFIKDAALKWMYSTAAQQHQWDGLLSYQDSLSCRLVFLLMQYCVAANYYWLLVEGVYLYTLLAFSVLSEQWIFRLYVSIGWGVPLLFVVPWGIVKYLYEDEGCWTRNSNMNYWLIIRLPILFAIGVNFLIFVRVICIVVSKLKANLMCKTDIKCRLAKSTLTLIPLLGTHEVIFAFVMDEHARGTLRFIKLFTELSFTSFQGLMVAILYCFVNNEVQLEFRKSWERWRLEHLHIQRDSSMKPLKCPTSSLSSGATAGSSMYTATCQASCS
Sequence of hGLP-1R (P43220 24-463): as above
T5 sequence (P47871 26-477): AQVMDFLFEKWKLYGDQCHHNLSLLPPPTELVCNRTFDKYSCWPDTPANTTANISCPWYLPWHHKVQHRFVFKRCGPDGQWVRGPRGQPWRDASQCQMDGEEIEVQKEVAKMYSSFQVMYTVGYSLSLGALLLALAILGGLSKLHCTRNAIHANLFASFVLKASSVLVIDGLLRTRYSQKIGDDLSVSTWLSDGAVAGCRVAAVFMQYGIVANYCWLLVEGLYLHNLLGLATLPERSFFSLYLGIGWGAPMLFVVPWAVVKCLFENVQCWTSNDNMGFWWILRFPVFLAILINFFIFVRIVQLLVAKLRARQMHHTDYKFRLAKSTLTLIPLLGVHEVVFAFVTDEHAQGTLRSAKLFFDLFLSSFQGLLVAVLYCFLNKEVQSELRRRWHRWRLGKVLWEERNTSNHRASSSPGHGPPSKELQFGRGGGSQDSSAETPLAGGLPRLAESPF
T6 sequence (P47871 26-477): as above

Molecule | EC50 (hGCGR; [7]) | EC50 (hGCGR; [8]) | Ki [1] | Ki [2] | Emax (hGIPR) | EC50 (hGIPR) | Ki [3] | Emax (hGLP-1R; 0.1% bovine casein, arithmetic mean) | EC50 (hGLP-1R) | Emax (hGLP-1R; 0.1% bovine casein and 1.0% human serum albumin) | cAMP EC50 [4] | cAMP Emax [4] | cAMP EC50 [5] | cAMP Emax [5] | cAMP EC50 [6] | cAMP EC50 (1.0% HSA) (human GIP receptor) | cAMP Emax (1.0% HSA) (human GIP receptor) | cAMP EC50 (1.0% HSA) (human glucagon receptor) | cAMP EC50 (1.0% HSA) (human GLP-1 receptor) | cAMP Emax (1.0% HSA) (human GLP-1 receptor)
CC[C@H](C)[C@H](NC(=O)[C@H](CC(C)C)NC(=O)[C@](C)(Cc1ccc(O)cc1)NC(=O)[C@H](CCCCNC(=O)CCCCCNC(=O)COCCOCCNC(=O)CC[C@H](NC(=O)CCCCCCCCCCCCC(=O)O)C(=O)O)NC(=O)[C@@H](NC(=O)[C@H](Cc1ccccc1)NC(=O)[C@H](CCCN)NC(=O)C(C)(C)NC(=O)[C@H](CCC(N)=O)NC(=O)[C@H](C)NC(=O)[C@H](CCC(N)=O)NC(=O)[C@H](CCCN)NC(=O)[C@H](CC(=O)O)NC(=O)[C@H](CC(C)C)NC(=O)[C@](C)(CC(C)C)NC(=O)[C@@H](NC(=O)C(C)(C)NC(=O)[C@H](Cc1ccncc1)NC(=O)[C@H](CC(=O)O)NC(=O)[C@H](CO)NC(=O)[C@@H](NC(=O)[C@](C)(Cc1ccccc1F)NC(=O)[C@@H](NC(=O)CNC(=O)[C@H](CCC(=O)O)NC(=O)C(C)(C)NC(=O)[C@@H](N)Cc1ccc(O)cc1)[C@@H](C)O)[C@@H](C)O)[C@@H](C)CC)[C@@H](C)CC)C(=O)N[C@@H](CCCCNC(=O)CCCCCNC(=O)COCCOCCNC(=O)CC[C@H](NC(=O)CCCCCCCCCCCCC(=O)O)C(=O)O)C(=O)NCC(=O)NCC(=O)N1CCC[C@H]1C(=O)N[C@@H](CO)C(=O)N[C@@H](CO)C(=O)NCC(=O)N[C@@H](C)C(=O)N1CCC[C@H]1C(=O)N1CCC[C@H]1C(=O)N1CCC[C@H]1C(=O)N[C@@H](CO)C(N)=O [Example 451] | > 9950 nM | > 9950 nM | 258 nM | 0.234 nM | 89.5% | 0.0113 nM | 0.0239 nM | 118% | 0.172 nM | – | – | – | – | – | – | – | – | – | – | –
CC[C@H](C)[C@H](NC(=O)[C@H](CC(C)C)NC(=O)[C@](C)(Cc1ccc(O)cc1)NC(=O)[C@H](CCCCNC(=O)COCCOCCNC(=O)COCCOCCNC(=O)COCCOCCNC(=O)CC[C@H](NC(=O)CCCCCCCCCCCCC(=O)O)C(=O)O)NC(=O)[C@@H](NC(=O)[C@H](Cc1ccccc1)NC(=O)[C@H](CCCN)NC(=O)C(C)(C)NC(=O)[C@H](CCC(N)=O)NC(=O)[C@H](C)NC(=O)[C@H](CCC(N)=O)NC(=O)[C@H](CCCN)NC(=O)[C@H](CC(=O)O)NC(=O)[C@H](CC(C)C)NC(=O)[C@](C)(CC(C)C)NC(=O)[C@@H](NC(=O)C(C)(C)NC(=O)[C@H](Cc1ccc(O)cc1)NC(=O)[C@H](CC(=O)O)NC(=O)[C@H](CO)NC(=O)[C@@H](NC(=O)[C@](C)(Cc1ccccc1F)NC(=O)[C@@H](NC(=O)CNC(=O)[C@H](CCC(=O)O)NC(=O)C(C)(C)NC(=O)[C@@H](N)Cc1ccc(O)cc1)[C@@H](C)O)[C@@H](C)O)[C@@H](C)CC)[C@@H](C)CC)C(=O)N[C@@H](CCCCNC(=O)COCCOCCNC(=O)COCCOCCNC(=O)COCCOCCNC(=O)CC[C@H](NC(=O)CCCCCCCCCCCCC(=O)O)C(=O)O)C(=O)NCC(=O)NCC(=O)N1CCC[C@H]1C(=O)N[C@@H](CO)C(=O)N[C@@H](CO)C(=O)NCC(=O)N[C@@H](C)C(=O)N1CCC[C@H]1C(=O)N1CCC[C@H]1C(=O)N1CCC[C@H]1C(=O)N[C@@H](CO)C(N)=O [Example 479] | > 9950 nM | > 9950 nM | 213 nM | 0.246 nM | 89.5% | 0.00718 nM | 0.0249 nM | – | 0.115 nM | 95.3% | – | – | – | – | – | – | – | – | – | –
CCCCCCCCCCCC(=O)N[C@@H](CCC(=O)NCCOCCOCC(=O)NCCOCCOCC(=O)NCCCC[C@H](NC(=O)[C@H](CCCN)NC(=O)[C@H](CC(=O)O)NC(=O)[C@H](CC(C)C)NC(=O)[C@](C)(CC(C)C)NC(=O)[C@@H](NC(=O)C(C)(C)NC(=O)[C@H](Cc1ccncc1)NC(=O)[C@H](CC(=O)O)NC(=O)[C@H](CO)NC(=O)[C@@H](NC(=O)[C@](C)(Cc1ccccc1F)NC(=O)[C@@H](NC(=O)CNC(=O)[C@H](CCC(=O)O)NC(=O)C(C)(C)NC(=O)[C@@H](N)Cc1ccc(O)cc1)[C@@H](C)O)[C@@H](C)O)[C@@H](C)CC)C(=O)N[C@@H](C)C(=O)N[C@@H](CCC(N)=O)C(=O)NC(C)(C)C(=O)NCC(=O)N[C@@H](Cc1ccccc1)C(=O)N[C@H](C(=O)N[C@H](CCC(=O)O)C(=O)N[C@@](C)(Cc1ccc(O)cc1)C(=O)N[C@@H](CC(C)C)C(=O)N[C@H](C(=O)N[C@@H](CCCCNC(=O)COCCOCCNC(=O)COCCOCCNC(=O)CC[C@H](NC(=O)CCCCCCCCCCC)C(=O)O)C(=O)NCC(=O)NCC(=O)N1CCC[C@H]1C(=O)N[C@@H](CO)C(=O)N[C@@H](CO)C(=O)NCC(=O)N[C@@H](C)C(=O)N1CCC[C@H]1C(=O)N1CCC[C@H]1C(=O)N1CCC[C@H]1C(=O)N[C@@H](CO)C(N)=O)[C@@H](C)CC)[C@@H](C)CC)C(=O)O [Example 494] | > 9950 nM | > 9950 nM | 135 nM | 0.188 nM | 92.6% | 0.0123 nM | 0.0197 nM | – | 0.15 nM | – | – | – | – | – | – | – | – | – | – | –
B1 | – | – | – | – | – | – | – | – | – | – | 0.535 nM | 87.6% | 0.0237 nM | 91.6% | > 9950 nM | 11.6 nM | 83.5% | > 9950 nM | 150 nM | 110%
